In ChEMBL document CHEMBL1201862, “PubChem BioAssay data set” (2004):
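Interpolation was linear, between the two tested concentrations surrounding the appropriate level; five concentrations were tested over 48 hours in 96-well plates. Abbreviation: GI50, concentration required for 50% inhibition of growth.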 Activity calls are given as the source filed them. Rule as the data show it: active = GI50 up to about 1.1 µM and inactive = higher.

What was measured:
Assay in all cases: NCI tumour cell line growth inhibition, 48 h
Malme-3M = test system: Malme-3M
OVCAR-4 = test system: OVCAR-4
NCI/ADR-RES = test system: NCI/ADR-RES
UACC-257 = test system: UACC-257
HT-29 = test system: HT-29
DU-145 = test system: DU-145
HCT-15 = test system: HCT-15
ACHN = test system: ACHN
MDA-N = test system: MDA-N
MDA-MB-435 = test system: MDA-MB-435
A498 = test system: A498
SW-620 = test system: SW-620
NCI-H23 = test system: NCI-H23
SF-295 = test system: SF-295
SNB-75 = test system: SNB-75
SK-MEL-28 = test system: SK-MEL-28
SR = test system: SR
UACC-62 = test system: UACC-62
U-251 = test system: U-251
CAKI-1 = test system: CAKI-1

| SMILES | GI50 (Malme-3M) | GI50 (OVCAR-4) | GI50 (NCI/ADR-RES) | GI50 (UACC-257) | GI50 (HT-29) | GI50 (DU-145) | GI50 (HCT-15) [µM] | GI50 (ACHN) | GI50 (MDA-N) | GI50 (MDA-MB-435) | GI50 (A498) | GI50 (SW-620) | GI50 (NCI-H23) | GI50 (SF-295) | GI50 (SNB-75) | GI50 (SK-MEL-28) | GI50 (SR) | GI50 (UACC-62) | GI50 (U-251) | GI50 (CAKI-1) |
| --- | --- | --- | --- | --- | --- | --- | --- | --- | --- | --- | --- | --- | --- | --- | --- | --- | --- | --- | --- | --- |
| CCCCCC(=O)OC[n+]1cccc(-c2c(COC(=O)NC(C)C)c(COC(=O)NC(C)C)c3n2CCC3)c1 | 43.2 µM (inactive) | 42.4 µM (inactive) | 49.4 µM (inactive) | > 100 µM (inactive) | 46.9 µM (inactive) | 35.4 µM (inactive) | 56.1 | 23.1 µM (inactive) | > 100 µM (inactive) | > 100 µM (inactive) | 15.9 µM (inactive) | 31.7 µM (inactive) | 28.8 µM (inactive) | 59 µM (inactive) | 33.7 µM (inactive) | > 100 µM (inactive) | 5.78 µM (inactive) | 23.4 µM (inactive) | > 61.5 µM (inactive) | 10.5 µM (inactive) |
| Cc1cccc2c(N)c3cccc(C(=O)NCC[N+](C)(C)Cc4sccc4[N+](=O)[O-])c3nc12 | 10.4 µM (inactive) | 12.3 µM (inactive) | 51.4 µM (inactive) | 26.9 µM (inactive) | 3.21 µM (inactive) | 23.8 µM (inactive) | 6.18 | 3.78 µM (inactive) | 19.6 µM (inactive) | 40.6 µM (inactive) | 27 µM (inactive) | 5.86 µM (inactive) | 3.94 µM (inactive) | 2.64 µM (inactive) | 7.28 µM (inactive) | 37.3 µM (inactive) | 0.398 µM (active) | 13.6 µM (inactive) | 6.47 µM (inactive) | 2.55 µM (inactive) |
| CCOC(=O)C(Cc1cc(OC)c(CC(C(=O)OCC)C(=O)OCC)cc1OC)C(=O)OCC | > 100 µM (inactive) | > 100 µM (inactive) | > 100 µM (inactive) | > 100 µM (inactive) | > 100 µM (inactive) | > 100 µM (inactive) | > 100 | > 100 µM (inactive) | > 100 µM (inactive) | > 100 µM (inactive) | > 100 µM (inactive) | > 100 µM (inactive) | > 100 µM (inactive) | > 92.7 µM (inactive) | 28.6 µM (inactive) | > 100 µM (inactive) | > 100 µM (inactive) | > 100 µM (inactive) | > 66.4 µM (inactive) | > 100 µM (inactive) |
| CCCCCCCCC[n+]1cccc(C2C(C(=O)OCC)=C(C)NC(C)=C2C(=O)OCC)c1 | 1.9 µM (inactive) | 6.9 µM (inactive) | 52.6 µM (inactive) | 2.38 µM (inactive) | 3.96 µM (inactive) | 11.6 µM (inactive) | 16 | 14.6 µM (inactive) | 2.13 µM (inactive) | 2.08 µM (inactive) | 18.2 µM (inactive) | 4.26 µM (inactive) | 4.36 µM (inactive) | 17 µM (inactive) | 3.67 µM (inactive) | 2.44 µM (inactive) | 5.74 µM (inactive) | 1.54 µM (inactive) | 3.21 µM (inactive) | 13.6 µM (inactive) |
| C=C1C(=O)OC2CC(C)C(C(O)CC(C)O)=CCC12 (stereo not given) | 7.74 µM (inactive) | 19.7 µM (inactive) | 17 µM (inactive) | 12.9 µM (inactive) | 13.6 µM (inactive) | 14.2 µM (inactive) | 14.2 | 4.39 µM (inactive) | 12.4 µM (inactive) | 19.6 µM (inactive) | 16.9 µM (inactive) | 10.4 µM (inactive) | 15.6 µM (inactive) | 41.2 µM (inactive) | 18.3 µM (inactive) | 9.62 µM (inactive) | 8.13 µM (inactive) | 16.6 µM (inactive) | 16.3 µM (inactive) | 4.3 µM (inactive) |
| COc1ccc2[nH]c3ccc4cc[n+](CCN5CCC(C6CCN(CC[n+]7ccc8ccc9[nH]c%10ccc(OC)cc%10c9c8c7)CC6)CC5)cc4c3c2c1 | 0.526 µM (active) | 7.29 µM (inactive) | 19.5 µM (inactive) | 35.2 µM (inactive) | 0.333 µM (active) | 21.4 µM (inactive) | 2.24 | 0.18 µM (active) | 2.96 µM (inactive) | > 50 µM (inactive) | > 16.2 µM (inactive) | 0.316 µM (active) | > 50 µM (inactive) | 1.64 µM (inactive) | 14.2 µM (inactive) | 1.88 µM (inactive) | 0.117 µM (active) | 0.938 µM (active) | 4.67 µM (inactive) | 1.02 µM (active) |
| O=C(CCc1ccc(O)c(O)c1)NCCc1ccccc1 | > 100 µM (inactive) | 14.6 µM (inactive) | 40.4 µM (inactive) | > 79.4 µM (inactive) | > 45.3 µM (inactive) | > 88.1 µM (inactive) | 15.5 | 22 µM (inactive) | 19 µM (inactive) | 15.2 µM (inactive) | > 100 µM (inactive) | > 100 µM (inactive) | 35.2 µM (inactive) | > 91.2 µM (inactive) | > 48 µM (inactive) | 85.5 µM (inactive) | 7.16 µM (inactive) | 24.5 µM (inactive) | 75 µM (inactive) | 6.49 µM (inactive) |
| Cc1nc(C)c(N2CCN(C#N)CC2)c(O)n1 | > 100 µM (inactive) | > 100 µM (inactive) | > 100 µM (inactive) | > 100 µM (inactive) | > 100 µM (inactive) | > 100 µM (inactive) | > 100 | > 100 µM (inactive) | > 100 µM (inactive) | > 100 µM (inactive) | > 100 µM (inactive) | > 100 µM (inactive) | > 100 µM (inactive) | > 100 µM (inactive) | 0.0442 µM (active) | > 100 µM (inactive) | > 100 µM (inactive) | > 100 µM (inactive) | 77.8 µM (inactive) | > 100 µM (inactive) |
| CCN(CC)c1ccc(/C=C/C=C2C(=O)NC(=S)NC2=O)cc1 | 16.6 µM (inactive) | > 100 µM (inactive) | 10.4 µM (inactive) | 58.6 µM (inactive) | > 100 µM (inactive) | 20.9 µM (inactive) | > 38.7 | > 100 µM (inactive) | 12.4 µM (inactive) | 8.67 µM (inactive) | > 100 µM (inactive) | > 33.9 µM (inactive) | > 67.5 µM (inactive) | > 83.6 µM (inactive) | 28.9 µM (inactive) | 4.91 µM (inactive) | 2.53 µM (inactive) | 15.1 µM (inactive) | 21 µM (inactive) | > 100 µM (inactive) |
| C=CCC1(O)c2ccccc2C(=O)c2c(O)ccc(O)c21 (stereo not given) | 3.4 µM (inactive) | 11.1 µM (inactive) | 2.12 µM (inactive) | 5.3 µM (inactive) | 7.28 µM (inactive) | 9.95 µM (inactive) | 3.61 | 13.7 µM (inactive) | 2.12 µM (inactive) | 1.8 µM (inactive) | 4.36 µM (inactive) | 5.79 µM (inactive) | 10.7 µM (inactive) | 5.07 µM (inactive) | 3.82 µM (inactive) | 8.28 µM (inactive) | 5.48 µM (inactive) | 4.01 µM (inactive) | 3.97 µM (inactive) | 15.5 µM (inactive) |
| CC(=O)N(C(C)=O)c1ncc(-n2nc(-c3ccccc3)cc2-c2ccccc2)c(-c2ccccc2)n1 | > 10 µM (inactive) | > 10 µM (inactive) | > 10 µM (inactive) | > 10 µM (inactive) | 4.65 µM (inactive) | > 10 µM (inactive) | 8.91 | > 10 µM (inactive) | 3.15 µM (inactive) | 3.52 µM (inactive) | > 10 µM (inactive) | > 10 µM (inactive) | > 10 µM (inactive) | > 10 µM (inactive) | > 10 µM (inactive) | > 10 µM (inactive) | 3.5 µM (inactive) | > 10 µM (inactive) | > 10 µM (inactive) | > 10 µM (inactive) |
| CC1=CCC[C@@H]2[C@@](C)(Cc3cc(O)ccc3O)[C@H](C)CC[C@@]12C | 16.4 µM (inactive) | 12.1 µM (inactive) | 5.24 µM (inactive) | 11.5 µM (inactive) | 17.7 µM (inactive) | 10.3 µM (inactive) | 5 | 6.25 µM (inactive) | 5.53 µM (inactive) | 5.2 µM (inactive) | 15.3 µM (inactive) | 6.52 µM (inactive) | 5.87 µM (inactive) | 7.28 µM (inactive) | 5.47 µM (inactive) | 8.81 µM (inactive) | 2.38 µM (inactive) | 10.5 µM (inactive) | 3.89 µM (inactive) | 11.3 µM (inactive) |
| CC1(C)N=c2c(ncn2N)=C(C(N)=O)N1 | > 100 µM (inactive) | > 100 µM (inactive) | > 100 µM (inactive) | > 100 µM (inactive) | > 100 µM (inactive) | > 100 µM (inactive) | > 100 | > 100 µM (inactive) | > 100 µM (inactive) | > 100 µM (inactive) | > 100 µM (inactive) | > 100 µM (inactive) | > 100 µM (inactive) | > 100 µM (inactive) | > 100 µM (inactive) | > 100 µM (inactive) | > 100 µM (inactive) | > 100 µM (inactive) | > 100 µM (inactive) | > 100 µM (inactive) |
| C=C1C(=O)C23CC1C[C@H](OC(C)=O)[C@H]2C1(C)C(OC(C)=O)C[C@H](O)C(C)(C)[C@H]1C(=O)[C@@H]3OC(C)=O (stereo not given in full) | 2.17 µM (inactive) | 4.09 µM (inactive) | 16.7 µM (inactive) | 2.43 µM (inactive) | 4.49 µM (inactive) | 12.9 µM (inactive) | 4.37 | 4.98 µM (inactive) | 1.69 µM (inactive) | 3.09 µM (inactive) | 16.2 µM (inactive) | 1.71 µM (inactive) | 3.58 µM (inactive) | 17.9 µM (inactive) | 18.4 µM (inactive) | 4.59 µM (inactive) | 2.47 µM (inactive) | 4.86 µM (inactive) | 15 µM (inactive) | 2.86 µM (inactive) |
